The term EC50 denotes the concentration at which the effect is half-maximal.

The text below walks through data of US20070122830A1, “Prohibitin-directed diagnostics and therapeutics for cancer and chemotherapeutic drug resistance” (Aurelium BioPharma Inc., priority 2005, published 2007).

Each structure is given as a SMILES string. Like-named read-outs stand apart in the source and are kept apart here.

Holding throughout (format): cell-based, human
The subject of test [1] is MDA Breast Cancer Cell Line. The test can be described thus: MTT cytotoxicity assay, transfected MDA cells plus chemotherapeutic drug. The note with it: for IC50: Homo sapiens, mock-transfected control, read-out: EC50, Control; for IC50 / EC50 / fold change of EC50, Prohibitin vs Control: MDA cells; for EC50: prohibitin (siRNA) transfected, read-out: EC50, Prohibitin; for sensitivity to drug of prohibitin siRNA treated cells compared to mock-treated cells / sensitivity to drug of prohibitin siRNA treated cells compared to mock controls: MDA; for sensitivity to drug of prohibitin siRNA treated cells compared to mock-treated cells: FIG. 9A-9H. The procedure:
(§1) For a typical siRNA transfection, 1 nmole of the annealed siRNA duplex was mixed with 1.4 ml of Opti-MEM reagent (Invitrogen). In another tube, […] of Oligofectamine reagent (Invitrogen, Carlsbad, Calif.) was mixed with […] of Opti-MEM. The two solutions were combined and mixed gently by inversion and incubated for 20 min. at RT. The resulting solution was added to the cultured cells drop by drop in a 10 cm dish (cells are approximately 40-50% confluent). The next day the transfected cells were trypsinized and seeded in 6 or 96-well plates and further incubated for the indicated amount of time (assay dependent) before further analysis.
(§2) RNA-transfected cells were seeded in triplicate into 96-well plates at 5×10^3 cells/well 48 hrs post-transfection. The cells were incubated for an additional 16 to 24 hrs before they were exposed to increasing concentrations of cytotoxic drugs. […] Appropriate dilutions were made in the respective media for each cell line. Following addition of drugs, incubation was continued for an additional 72 hrs. […] of MTT dye (5 mg/ml) were added into each well and the plate was further incubated at 37° C. for 4 hrs. The dye was solubilized with 10% Triton X-100, 0.01 N HCl and further incubated at 37° C. in the dark for 30 min. Cell viability was determined by measure of absorption at 570 nm in a Wallac multiwell plate reader (PerkinElmer, Inc., Boston, Mass.). The averages of triplicate wells were plotted using the Prism software (GraphPad Software, Inc., San Diego, Calif.).
In general terms: Tetrazolium assays rely on reduction of a dye to a coloured formazan, in cell work by metabolically active cells.

Test [2] relates to MCF-7 Breast Cancer Cell Line. The test can be described thus: MTT cytotoxicity assay, transfected MCF-7 cells plus chemotherapeutic drug. The note with it: for sensitivity to drug of prohibitin siRNA treated cells: MCF-7, FIGS. 15A-15H; for fold change of EC50, Prohibitin vs Control: direction IS/IR in same cell (E42). On the procedure: as §1
as §2, with “Cell survival was determined using the MTT cytotoxicity assay (see, e.g., Tokuyama et al. (2005) Anticancer Res. 25(1A): 17-22). RNA-transfected” for “RNA-transfected”, “drugs. Doxorubicin (adriamycin), cisplatinum, taxol, vinblastin, vincristin, and mitoxantrone were all purchased from Sigma Corp. (St. Louis, Mo.).” for “drugs.”
Cell survival was determined as described in Example 3 above.

For test [3], the system named is SKOV3 Ovarian Cancer Cell Line. The test can be described thus: MTT cytotoxicity assay, transfected SKOV3 cells plus chemotherapeutic drug. The note with it: for IC50: Homo sapiens, SK-OV-3, SKOV3 cells, mock-transfected control, read-out: EC50, Control; for EC50 / fold change of EC50, Prohibitin vs Control: SKOV3 cells; for EC50: prohibitin (siRNA) transfected, read-out: EC50, Prohibitin; for fold change of EC50, Prohibitin vs Control: direction IS/IR in same cell (E54). The procedure:
as §1, §2
Each table summarizes the results of an individual experiment performed in triplicate.

[4] abbreviates: Table 3 experiment, direction IS/IR in same cell (E6).
[5] abbreviates: Table 4 experiment, direction IS/IR in same cell (E12).
Where [6] appears, read: Table 8 experiment, direction IS/IR in same cell (E36).
The mark [7] stands for this setting: Table 7 experiment, direction IS/IR in same cell (E30).
The mark [8] stands for this setting: MCF-7 cells, prohibitin (siRNA) transfected, Table 9, read-out: EC50, Prohibitin.

On to `N[C@@H](Cc1ccc(N(CCCl)CCCl)cc1)C(=O)O` [Melphalan], for which the IC50 in test [1] (Table 3 experiment) came out at 60100 nM; in test [1] (Table 4 experiment) it was 36100 nM; in test [1] (Table 7 experiment) it was 24800 nM; in test [1] (Table 8 experiment), 35400 nM; in test [3] (Table 10 experiment), 5790 nM; in test [3] (Table 11 experiment), 5950 nM. The EC50 came out at 39000 nM in test [1] (Table 3 experiment); 41000 nM in test [1] (Table 4 experiment); 23800 nM in test [1] (Table 7 experiment); 19100 nM in test [1] (Table 8 experiment); 14700 nM in test [2] (Homo sapiens, MCF7, MCF-7 cells, mock-transfected control, Table 9, read-out: EC50, Control); 10500 nM in test [2] (Homo sapiens, MCF7, MCF-7 cells, prohibitin (siRNA) transfected, Table 9, read-out: EC50, Prohibitin). For the same compound, the EC50 came out at 4540 nM in test [3] (Table 10 experiment) and 4560 nM in test [3] (Table 11 experiment). Also, the “fold change of EC50, Prohibitin vs Control” value (shortened to “fold change of EC50”) was found to be 1.5 x in test [1] (setting [4]); 1.1 x in test [1] (setting [5]); 1.8 x in test [1] (setting [6]); 1.4 x in test [2] (MCF-7 cells, Table 9); 1.3 x in test [3] (Table 11 experiment). In addition, the “sensitivity to drug of prohibitin siRNA treated cells compared to mock-treated cells” value in test [1] is given as “increased sensitivity”. Moreover, the “sensitivity to drug of prohibitin siRNA treated cells compared to mock controls” value (shortened to “sensitivity to drug … compared to mock controls”) in test [1] (FIGS. 14A-14H) is recorded as “more sensitive”. Besides, the “sensitivity to drug of prohibitin siRNA treated cells” value in test [2] was “more sensitive”.
Regarding `O=C1c2c(O)ccc(O)c2C(=O)c2c(NCCNCCO)ccc(NCCNCCO)c21` [Mitoxantrone], the IC50 in test [1] (Table 3 experiment) was 0.11 nM; in test [1] (Table 4 experiment) it was 0.0961 nM; in test [1] (Table 7 experiment) it was 44.1 nM; in test [1] (Table 8 experiment) it was 40.9 nM; in test [3] (Table 10 experiment), 0.801 nM; in test [3] (Table 11 experiment), 0.147 nM. The EC50 is 0.173 nM in test [1] (Table 3 experiment); 0.409 nM in test [1] (Table 4 experiment); 27.6 nM in test [1] (Table 7 experiment); 26.6 nM in test [1] (Table 8 experiment); 3.94 nM in test [2] (setting [8]); 0.358 nM in test [3] (Table 10 experiment). Also, in test [3] (Table 11 experiment), the EC50 was found to be 0.118 nM. For the same compound, the “fold change of EC50” value in test [1] (setting [4]) turned out to be 1.6 x; in test [1] (setting [5]) it was 4.2 x; in test [1] (setting [7]), 1.6 x; in test [1] (setting [6]) it was 1.5 x; in test [2] (MCF-7 cells, Table 9) it was 2.2 x; in test [3] (Table 11 experiment), 1.2 x. The “sensitivity to drug … compared to mock controls” value in test [1] (FIGS. 13A-13H) is on record as “increased the sensitivity”; in test [1] (FIGS. 14A-14H), “more sensitive”. Further, in test [2], the “sensitivity to drug of prohibitin siRNA treated cells” value is listed as “more sensitive”.
Consider `CC(=O)O[C@H]1C(=O)[C@@]2(C)[C@H]([C@H](OC(=O)c3ccccc3)[C@]3(O)C[C@H](OC(=O)[C@H](O)[C@@H](NC(=O)c4ccccc4)c4ccccc4)C(C)=C1C3(C)C)[C@]1(OC(C)=O)CO[C@@H]1C[C@@H]2O` [Taxol], for which the IC50 turned out to be 200 nM in test [1] (Table 3 experiment); 316 nM in test [1] (Table 4 experiment); 5.11 nM in test [1] (Table 5 experiment); 10.8 nM in test [1] (Table 6 experiment); 8.32 nM in test [1] (Table 7 experiment); 19.2 nM in test [1] (Table 8 experiment). Moreover, the IC50 was 0.895 nM in test [3] (Table 10 experiment) and 1.82 nM in test [3] (Table 11 experiment). Besides, the EC50 in test [1] (Table 3 experiment) amounted to 515 nM; in test [1] (Table 4 experiment), 301 nM; in test [1] (Table 5 experiment) it was 6.55 nM; in test [1] (Table 6 experiment), 6.19 nM; in test [1] (Table 7 experiment) it was 4.38 nM; in test [1] (Table 8 experiment), 12.7 nM. For the same compound, the EC50 is 2.62 nM in test [2] (setting [8]), 0.536 nM in test [3] (Table 10 experiment) and 1.09 nM in test [3] (Table 11 experiment). The “fold change of EC50” value is recorded as 2.6 x in test [1] (setting [4]); 1.3 x in test [1] (Table 5 experiment, direction IS/IR in same cell (E18)); 1.7 x in test [1] (Table 6 experiment, direction IS/IR in same cell (E24)); 1.9 x in test [1] (setting [7]); 1.5 x in test [1] (setting [6]); 30.0 x in test [2] (MCF-7 cells, Table 9). Besides, the “fold change of EC50” value in test [3] (Table 11 experiment) amounted to 1.7 x. For the same compound, the figures for the “sensitivity to drug … compared to mock controls” value in test [1] (FIGS. 12A-12D), in test [1] (FIGS. 13A-13H) and in test [1] (FIGS. 14A-14H) were “increased sensitivity”, “increased the sensitivity” and “more sensitive”, respectively. The “sensitivity to drug of prohibitin siRNA treated cells” value in test [2] is on record as “more sensitive”. The “increase in sensitivity to drug as compared to controls” value in test [2] (MCF-7 cells treated with prohibitin siRNA, FIG. 15B) is recorded as 30 fold.
`CC[C@]1(O)C[C@H]2CN(CCc3c([nH]c4ccccc34)[C@@](C(=O)OC)(c3cc4c(cc3OC)N(C=O)[C@H]3[C@@](O)(C(=O)OC)[C@H](OC(C)=O)[C@]5(CC)C=CCN6CC[C@]43[C@@H]65)C2)C1` [Vincristin]: the IC50 in test [1] (Table 3 experiment) is 2840 nM; in test [1] (Table 4 experiment), 1480 nM; in test [1] (Table 7 experiment), 12.3 nM; in test [1] (Table 8 experiment), 12.4 nM; in test [3] (Table 10 experiment) it was 3.75 nM; in test [3] (Table 11 experiment) it was 3.58 nM. The EC50 in test [1] (Table 3 experiment) worked out at 837 nM; in test [1] (Table 4 experiment), 18600 nM; in test [1] (Table 8 experiment) it was 4.3 nM; in test [2] (setting [8]) it was 350 nM; in test [3] (Table 10 experiment) it was 3.17 nM; in test [3] (Table 11 experiment) it was 2.53 nM. The “fold change of EC50” value in test [1] (setting [4]) was found to be 3.4 x; in test [1] (setting [5]), 12.5 x; in test [1] (setting [6]), 2.9 x; in test [2] (MCF-7 cells, Table 9) it was 2.1 x; in test [3] (Table 11 experiment) it was 1.4 x. For the same compound, the “sensitivity to drug of prohibitin siRNA treated cells compared to mock-treated cells” value in test [1] is on record as “increased sensitivity”. Further, the “sensitivity to drug … compared to mock controls” value in test [1] (FIGS. 14A-14H) is “more sensitive”. Moreover, the “change in sensitivity to the drug, Prohibitin vs Control” value in test [2] (MCF-7 cells, Table 9) is “IR (IR: “increased in resistance” to the drug)”.
